In patent publication US7919091B2, “Lipolysis stimulated receptor (LSR) specific antibodies” (Serono Genetics Institute S.A., priority 1997, dated 2011):

What was measured:
LSR receptors = type: cell-based, rat; conditions: after leptin; 5 μM cycloheximide or 2.5 μM cytochalasin B, 30 min 37° C.
Procedure: Primary cultures of rat hepatocytes are incubated for 30 min at 37° C. in the presence or in the absence of 20 ng/ml of leptin, for 10 min at 37° C. in the presence of 0.8 mM oleate. The cells are washed with PBS buffer precooled to 4° C., and then incubated for 2 hours at 4° C. in the presence of increasing concentrations of ^125I-LDL. The cells are then washed, lysed and the quantity of bound ^125I-LDL is measured.
The initial conditions are identical to those described above; after incubation with leptin, the cells are incubated for 30 min at 37° C. with 5 μM cycloheximide, 5 μM colchicine or 2.5 μM cytochalasin B. The cells are then incubated for 10 min at 37° C. in the presence of 0.8 mM oleate. The cells are then washed with PBS buffer precooled to 4° C., and then incubated for 2 hours at 4° C. in the presence of 50 μg/ml of ^125I-LDL. 2 measurements are carried out, and the mean results are presented.

LSR = target: T1, LSR (Rattus norvegicus, UniProt Q9WU74); assay: Effect of C1q on binding, internalization and degradation of LDLs by hepatocytes in primary culture; type: cell-based
T1 sequence (Q9WU74 36-593): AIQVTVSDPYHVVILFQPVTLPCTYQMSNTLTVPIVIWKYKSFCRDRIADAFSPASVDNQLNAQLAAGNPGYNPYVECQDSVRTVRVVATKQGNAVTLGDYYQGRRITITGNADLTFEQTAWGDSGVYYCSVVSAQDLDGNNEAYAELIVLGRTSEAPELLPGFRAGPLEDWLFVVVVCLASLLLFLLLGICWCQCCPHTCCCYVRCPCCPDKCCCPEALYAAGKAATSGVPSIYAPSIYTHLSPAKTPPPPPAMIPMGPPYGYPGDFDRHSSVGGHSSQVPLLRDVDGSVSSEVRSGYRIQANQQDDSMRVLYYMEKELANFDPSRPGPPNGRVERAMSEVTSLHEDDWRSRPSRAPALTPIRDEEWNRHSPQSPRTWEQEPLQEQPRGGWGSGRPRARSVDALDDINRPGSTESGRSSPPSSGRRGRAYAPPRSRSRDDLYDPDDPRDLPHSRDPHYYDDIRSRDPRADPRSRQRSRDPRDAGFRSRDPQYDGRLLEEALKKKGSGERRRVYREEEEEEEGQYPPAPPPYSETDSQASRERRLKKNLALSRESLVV
T1 sequence (Q9WU74 36-525 isoform Q9WU74-3 limits assumed): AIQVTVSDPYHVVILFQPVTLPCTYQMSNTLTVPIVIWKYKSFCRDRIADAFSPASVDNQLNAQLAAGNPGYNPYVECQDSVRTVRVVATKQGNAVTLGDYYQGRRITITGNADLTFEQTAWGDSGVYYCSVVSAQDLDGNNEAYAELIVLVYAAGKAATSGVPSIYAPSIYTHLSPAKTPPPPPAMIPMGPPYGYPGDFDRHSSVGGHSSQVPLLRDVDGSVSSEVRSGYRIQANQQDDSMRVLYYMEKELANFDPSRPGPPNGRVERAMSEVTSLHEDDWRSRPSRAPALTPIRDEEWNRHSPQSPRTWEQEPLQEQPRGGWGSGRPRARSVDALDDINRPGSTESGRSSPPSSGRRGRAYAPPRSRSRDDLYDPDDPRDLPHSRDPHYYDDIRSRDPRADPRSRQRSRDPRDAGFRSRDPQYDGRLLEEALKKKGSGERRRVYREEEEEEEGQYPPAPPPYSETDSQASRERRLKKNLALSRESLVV
Procedure: The LSR activity in the primary cultures of rat hepatocytes is measured by the binding, internalization and degradation of ^125I-LDL and ^125I-VLDL (LDL: low-density lipoprotein; VLDL: very low-density lipoprotein), as described in Bihain and Yen, 1992 and Mann et al., 1995.
It has been shown that gC1q-R could bind the globular head of […]. We sought to use this property of C1q to displace gC1q-R combined with LSR, and we measured the effect of increasing doses of C1q on the binding, internalization and degradation of the LDLs by hepatocytes in primary culture.

Row | Compound | induction by leptin of the LSR activity (increase in apparent number of receptors) (LSR receptors) | capture and degradation of LDLs (LSR; C1q, in the presence of oleate) | capture and degradation of LDLs (LSR; human C1q, in the absence of oleate)
1 | C[C@@H]1C[C@@H]([C@H](O)CC2CC(=O)NC(=O)C2)C(=O)[C@@H](C)C1 [cycloheximide] | partially inhibited |  | 
2 | C=C1[C@@H](C)[C@H]2[C@H](Cc3ccccc3)NC(=O)[C@]23OC(=O)/C=C/[C@H](O)CCC[C@@H](C)C/C=C/[C@H]3[C@@H]1O [cytochalasin B] | inhibited |  | 
3 | C1q: human complement factor C1q, binds gC1q-R |  | less substantial, but nevertheless significant, increase | increase
